Experimental data published in patent US20230372393A1, “METHODS FOR ALLOGENEIC HEMATOPOIETIC STEM CELL TRANSPLANTATION” (Orca Biosystems, Inc., priority 2020, published 2023).

Key:
Assay type in all cases: in vivo, human
[1] = tested on: subjects with advanced hematologic malignancies undergoing myeloablative alloHCT; test: Clinical study: GVHD and relapse-free survival, cGVHD-free survival; settings: tacrolimus-only relative to sirolimus-only patients, FIG. 7G
From the text: GVHD and relapse-free survival is a composite readout that can refer to survival without relapse or Grade ≥3 acute or extensive chronic GVHD.

[2] = tested on: subjects with advanced hematologic malignancies undergoing myeloablative alloHCT; test: Clinical study: acute GVHD (MAGIC criteria)
Method: (§1) A clinical study was conducted in subjects with advanced hematologic malignancies undergoing myeloablative allogeneic hematopoietic cell transplantation (alloHCT).
(§2) Personnel who identified subjects for the SOC cohort were blinded as to their clinical outcomes.
Acute GVHD was staged and graded per MAGIC Standardization criteria.
Acute GVHD: Acute GVHD (aGVHD) is a significant driver of morbidity and mortality associated with alloHCT, reducing the severity and incidence of aGVHD has the potential to greatly benefit graft recipients. Acute GVHD was staged and graded per Mount Sinai Acute GvHD International Consortium (MAGIC) Standardization criteria.

[3] = tested on: subjects with advanced hematologic malignancies undergoing myeloablative alloHCT; test: Clinical study: chronic GVHD (NIH criteria); settings: serum tacrolimus trough higher versus lower than 4 ng/ml, FIG. 9B
Method: as §1, §2

[4] = tested on: subjects with advanced hematologic malignancies undergoing myeloablative alloHCT; test: Clinical study: overall survival; settings: tacrolimus-only relative to sirolimus-only patients, FIG. 7H
From the text: Overall survival: OS was defined as the time from the date of transplant to the date of death from any cause or, for surviving patients, to the date of last follow-up.

[5] = tested on: CD3+ cells of donor origin; test: Donor T cell chimerism versus tacrolimus trough level; settings: lower average trough tacrolimus level through day +30, p=0.0011, FIG. 9H
Method: Peripheral blood samples from subjects were also analyzed for chimerism as part of the follow-up procedures. The blood samples were processed to select for various cell populations using standard markers for each cell population. Blood was drawn from subjects that received the composition of the disclosure on day +28, day +56, day +100, day +180 and day +365 post-transplant, and the frequency of peripheral blood cells were quantified by flow cytometry (Markers used for analysis are described in Table 16).
Without wishing to be bound by a theory, it can be hypothesized that an improved chimerism due to higher tacrolimus levels may have led to the improved GVHD and survival outcomes in patients.

[6] = tested on: subjects with advanced hematologic malignancies undergoing myeloablative alloHCT; test: Clinical study: disease relapse and disease status; settings: tacrolimus-only relative to sirolimus-only patients
Method: as §1, §2

In the case of `C=CC[C@@H]1/C=C(\C)C[C@H](C)C[C@H](OC)[C@H]2O[C@@](O)(C(=O)C(=O)N3CCCC[C@H]3C(=O)O[C@H](/C(C)=C/[C@@H]3CC[C@@H](O)[C@H](OC)C3)[C@H](C)[C@@H](O)CC1=O)[C@H](C)C[C@@H]2OC` [tacrolimus], the GRFS rates [1] is reported as “improved”, the GVHD rates ([2]; average serum tacrolimus trough level higher than 4 ng/ml for the first 30 days post-transplant, FIG. 8A) is reported as “lower GVHD rates” and the GVHD rates ([2]; same conditioning regimen (Bu/Cy or TBI/BFT), trough higher versus lower than 4 ng/ml, FIGS. 9C-G) is reported as “improvement in GVHD rates”. For the same compound, the “Acute GVHD rates” value ([2]; serum tacrolimus trough higher versus lower than 4 ng/ml, FIG. 9A) was “significant improvement”, the GVHD rates ([2]; tacrolimus only versus sirolimus only prophylaxis, FIGS. 7A-C) was “higher GVHD rates” and the “chronic GVHD rates” value [3] was “improvements”. The overall survival rates [4] was “improved”, the “engraftment of donor T cells (T cell chimerism)” value [5] was “increased engraftment of donor T cells” and the “survival (FIG. 7E)” value [6] was “improved”. For the same compound, the relapse rates ([6]; FIG. 7F) was “improved”.
